Experimental findings from patent US9486471B2, “Combination therapy for the treatment of cancer” (McMaster University, priority 2012, dated 2016) are described below.

One assay has as its system AML patient blast cells. The assay can be described thus: Methylcellulose colony-forming assay, AML patient blast-CFU. In kind it is cell-based, human. The protocol: AML/HPSC Cell Culture. AML cell lines, namely, OCI-AML2 (M4), OCI-AML3 (M4), HL-60 (M2) and MV-4-11(M5) were cultured in RPMI (Gibco) supplemented with 5% heated-inactivated FBS (HyClone). For DR agonist studies with R(+)-7-Hydroxy-DPAT hydrobromide (Sigma), serum-free conditions were employed instead due to the prevalence of dopamine in FBS (Little et al., 2002). AML patient blasts were cultured in IMDM supplemented with 5% heated inactivated FBS (HyClone), 5 ng/mL IL3 (R&D systems), 5×10^−5 M β-mercaptoethanol (Sigma) and BIT (StemCell Technologies). HSC media contained IMDM supplemented with 1% BSA (Sigma), 100 ng/mL SCF (R&D systems), 100 ng/mL Flt-3L (R&D systems) and 20 ng/mL TPO (R&D systems). Patient HSPC and AML samples were treated with compound or DMSO-vehicle (0.1%) for 24 h prior to CFU plating or xenotransplantation studies.
Methylcellulose Colony-Forming Assay. AML patient or CB lin− cells were cultured 24 hours in the presence of compound or DMSO-vehicle (0.1%) control. AML cells were plated at 50 000 cells/mL in Methocult GF H4434 (Stem Cell Technologies). CB lin− cells were plated at 1000 cells/mL in Methocult GF H4434 (Stem Cell Technologies). Colonies were scored after 14 days of culture using standard morphological criteria.

Assay [1] has as its system p53 and p21 in neoplastic hPSCs. As to the kind of experiment: p53 and p21 accumulation in neoplastic hPSCs. The class given is cell-based, human. To be noted: 24 h; 10 μM etoposide, 10 μM thioridazine, BMP4. From the text:
Antibodies. Antibodies used for immunocytochemistry were the following: Oct3/4 (BD Trunsduction Laboratories, cat#611203), Sox2 (R&D, cat#AF2018). To detect human hematopoietic cells, Pacific Blue-, PE-, APC- or FITC labeled anti-human CD45 was used (BD Biosciences). FITC anti-CD33, PE anti-CD13, FITC anti-CD41a, FITC anti-HLA DR, and PE anti-CD19 antibodies were obtained from BD Pharmingen. PE anti-CD14, PE anti-CD15 and PE anti-GlyA were acquired from Immunotech Beckman Coulter. To determine pluripotency, PE anti-SSEA3 (BD Biosciences) and PE- or AlexaFluor488 anti-Oct4 (BD Biosciences). Rabbit anti-human dopamine receptor antibodies; DRD1 (Cat#324390), DRD2 (Cat#324393), DRD3 (Cat#324402), DRD4 (Cat#324405) and DRD5 (Cat#324408) were sourced from EMD Chemical. Anti-rabbit Alexa-Fluor-488 (Molecular Probes) was used as the secondary antibody. Primary anti-p53 (Cat#2527) and anti-p21 (Cat#2947) rabbit IgG sourced from Cell Signaling Technology were used to stain fixed and permeabilized cells. Anti-rabbit alexa-Fluor-546 (Molecular Probes) was used as the secondary antibody.

Assay [2] concerns differentiation-associated genes in neoplastic hPSCs. As to the kind of experiment: TaqMan Low-Density Array-qPCR of differentiation genes. The class given is cell-based, human. To be noted: treated neoplastic hPSCs; >2 fold increase.
Experimental: Gene Expression Analysis. Cells in specific conditions were collected and RNA was extracted by using RNeasy kit (Qiagen), complementary DNA (cDNA) generation by using SuperScript III® cDNA synthesis kit (Invitrogen), pre-amplification and TaqMan® array reaction (Applied Biosystems) were performed according to manufacturer's instructions. The gene expression profile for each treated cell population was analyzed using TaqMan® Stem Cell Pluripotency Array Card on ViiA 7 Real-Time PCR System (Applied Biosystems). Each reaction sample was dispensed into loading wells on the array card and centrifuged twice at 336×g for 1 min each time, sealed, and placed in the thermal cycler. The following cycling conditions were used for all array card applications: 45° C. for 10 min, 94° C. for 10 min, and 40 cycles of 94° C. for 30 s followed by 60° C. for 1 min. Array data were normalized to 18S RNA and GAPDH and comparisons were performed using data analysis 2.0 software (Applied Biosystems).
For a further assay, the system named is primary AML cells. As to the kind of experiment: Methocellulose blast colony formation of primary AML cells (Example 2). The class given is cell-based, human. Particulars: 10 μM; control about 22; at least 14 days. The protocol:
(§1) Normal HSCs and progenitors were sourced from either mobilized peripheral blood or umbilical cord blood of health patients. Primary AML cells were taken from patients diagnosed with AML. Both normal HSCs and primary AML cells were cultured under standard in vitro methocellulose assay conditions (see http://www.stemcell.com/en/Products/All-Products/MethoCult-H4434-Classic.aspx as well as Clinton Campbell et al. The human stem cell hierarchy is defined by a functional dependence on Mcl-1 for self-renewal capacity. Blood 116 (9) 1433-1442 (Jun. 4, 2010), hereby incorporated by reference) for at least 14 days before the number of colonies were recorded.

For assay [3], the system named is patient AML cells (CD11b). As to the kind of experiment: Frequency of CD11b granulocytic cells in cultured patient AML cells. To be noted: 10 μM, up to 96 hours. In kind it is cell-based, human.
Assay [4] has as its system AML LSCs (CD45+CD33+ blast engraftment). As to the kind of experiment: Xenotransplantation of compound-treated AML cells into NSG mice. The class given is in vivo. The protocol:
Xenotransplantation Assays. NOD.Cg-Prkdc^scid II2rg^tm1Wjl/SzJ adult mice (NSG) were sub-lethally irradiated with 315 rads 24 hours prior transplantation. 0.8-1.0×10^7 AML MNCs or 1.5-1.8×10^5 CB lin-hematopoietic cells treated with compound or DMSO-vehicle for 24 h were injected via tail vein (IV). After 6-10 weeks, animals were culled, and the BM and spleen were analyzed for the presence of human cells by flow cytometry (LSRII, BD) and data was analyzed using FlowJo software (Tree Star Inc). For secondary HSPC transplants, equal number of engrafted human cells from CB lin− transplants were injected IV in adult irradiated NSG mice as described for primary transplants.
To delineate whether the inhibition of AML-blasts detected in vitro was due to the compounds affecting the neoplastic stem cell compartment, xenotransplantation studies (Dick, 2008) that functionally define LSCs and hematopoietic stem cells (HSCs) were conducted (FIG. 12).

Assay [5] concerns normal HSCs and progenitors. As to the kind of experiment: Methocellulose colony formation of normal HSCs (Example 2). To be noted: 10 μM. In kind it is cell-based, human. The protocol: as §1

Turning to `CSc1ccc2c(c1)N(CCC1CCCCN1C)c1ccccc1S2` (racemic) [thioridazine, 10-{2-[(RS)-1-Methylpiperidin-2-yl]ethyl}-2-methylsulfanylphenothiazine], in the assay with AML patient blast cells (10 μM, 24 h), the “blast-CFU generation, DR+ subfraction of patient AML” value is given as “reduction” and the “blast-CFU generation, DR- subfraction of patient AML” value is listed as “no reduction”. Also, the AML proliferation/clonogenic capacity entry with AML patient blast cells (24 h treatment, colonies scored after 14 days) is on record as “reduction”. The “AML-blast CFU formation” value in the assay with AML patient blast cells (dose not stated in the sentence (0.1, 1, 10 μM tested)) was “reduced”. For the same molecule, in assay [1], the “accumulation of cell stress marker p53” value is “no accumulation” and the “accumulation of p21” value is on record as “no accumulation”. Also, the upregulated differentiation-associated genes in assay [2] is 21 of 50. In the assay with primary AML cells, the “number of CFU colonies of AML cells” value is 1.6 blast colonies. Besides, the “frequency of granulocytic (CD11b) AML-blast cells” value in assay [3] is “marked increase”. Further, the “leukemic disease-initiating AML LSC capacity” value in assay [4] (10 μM, 24 h ex vivo treatment) is “significantly reduce”. Further, in assay [4] (secondary recipients, in the absence of thioridazine), the “level of leukemic engraftment of secondary transplant recipients” value is reported as “no difference”. Also, the “cell pellets of CFU colonies” value in assay [5] (HSCs) was “pelleted cells are still visible”. Further, the “colony forming potential of normal HSCs” value in assay [5] (DMSO control about 100, at least 14 days) is “about 66 total colonies”.
